Experimental data from patent US20070292528A1, “Kcnma1 as a Therapeutic Target in Cancer Treatment” (priority 2003, published 2007).
Entries after “also recorded” stand apart in the source; their conditions may differ.

Legend:
[1] = biological target: T1, potassium channels in membrane patches of PC-3 cells (Homo sapiens, UniProt Q12791); test: Patch clamp, cell excised inside/out membrane patches of PC-3 cells; type: cell-based; settings: preliminary
T1 construct: endogenous in cells; host or cells: PC-3 prostate cancer cells (excised inside/out membrane patches)
Excerpt: (§1) Numerous channels are active under high (1 mmol/l) intracellular Ca^2+ concentration in the membrane patch from PC-3 cells (A), thus single channel currents cannot be resolved. In contrast, little channel activity is present in the BPH-1 membrane patch (B).
(§2) Patch clamp recording was used to further assess the role of KCNMA1.
(§3) The membrane voltage of PC-3 cells is hyperpolarized when compared with that of BPH-1 cells. Moreover, paxillin inhibited potassium channels in cell excised inside/out membrane patches of PC-3 cells, but not in membrane patches of BPH-1 cells. In cell excised inside/out membrane patches of PC-3 cells we found pronounced activity of Ca^2+ activated K^+ channels, while little channel activity was found in excised membrane patches of BPH-1 cells (FIG. 10). Removal of Ca^2+ from the cytosolic side (0 mmol/l) abolished channel activity in both membrane patches of PC-3 and BPH-1 cells. Channel activity was recovered at cytosolic Ca^2+ concentrations of 1 μmol/l (0.001). These preliminary results fit very well to the expression data of KCNMA1 obtained so far.

[2] = tested on: potassium channels in membrane patches of BPH-1 cells; test: Patch clamp, cell excised inside/out membrane patches of BPH-1 cells; type: cell-based, human; settings: preliminary
Excerpt: as §1, §2, §3

[3] = tested on: BPH-1; test: Growth (cell count) of BPH-1 under iberiotoxin/17β-estradiol treatment; type: cell-based, human; settings: two days; for effect on estradiol-stimulated growth of BPH-1: 0.05 μM Iberiotoxin + 0.1 μM Estradiol
Procedure: (§4) “K” represents a control; “I” represents treatment with 0.05 μM Iberiotoxin (Sigma); “E” represents treatment with 0.1 μM Estradiol; and “E+I” represents treatment with both 0.05 μM Iberiotoxin and 0.1 μM Estradiol. Cells were grown in OPTI-MEM (Invitrogen) +0.4% Albu-max (Invitrogen) for two days.
(§5) Cell culture: As standard, the cells were grown in OPTIMEM (Invitrogen) containing 10% FCS (Amimed) and 1% Pen/Strep (Amimed). For iberiotoxin/17β-estradiol treatment 25000 cells were seeded in OPTIMEM, 10% FCS into 6 well plates (Falcon). After one day incubation, the medium was changed to OPTIMEM 1%FCS, 1% Pen/Strep. After another day of incubation the experiment was started by changing the Medium to OPTIMEM 0.4% Albumax (Invitrogen), 1% Pen/Strep containing either only solvents, 50 nM iberiotoxin (Sigma), 100 nM 17β-estradiol (Sigma), or a combination of both. After two days of incubation, the cells were collected and counted.

[4] = tested on: PC-3; test: Growth (cell count) of PC-3 under iberiotoxin/17β-estradiol treatment; type: cell-based, human; settings: two days
Procedure: as §4, §5

[5] = tested on: LNCaP; test: Growth (cell count) of LNCaP under iberiotoxin/17β-estradiol treatment; type: cell-based, human; settings: two days; for effect on estradiol-stimulated growth of LNCaP: 0.05 μM Iberiotoxin + 0.1 μM Estradiol
Procedure: as §4, §5

[6] = tested on: whole cell conductances of BPH-1 cells; test: Whole cell patch clamp, BPH-1 cells; type: cell-based, human; settings: iberiotoxin 30 nM, preliminary
[7] = tested on: whole cell conductances of PC-3 cells; test: Whole cell patch clamp, PC-3 cells; type: cell-based, human; settings: iberiotoxin 30 nM, preliminary
[8] = 100 nM 17β-estradiol, listed as 17β-estradiol
[9] = 50 nM iberiotoxin, listed as Iberiotoxin

T1 sequence (Q12791 whole entry): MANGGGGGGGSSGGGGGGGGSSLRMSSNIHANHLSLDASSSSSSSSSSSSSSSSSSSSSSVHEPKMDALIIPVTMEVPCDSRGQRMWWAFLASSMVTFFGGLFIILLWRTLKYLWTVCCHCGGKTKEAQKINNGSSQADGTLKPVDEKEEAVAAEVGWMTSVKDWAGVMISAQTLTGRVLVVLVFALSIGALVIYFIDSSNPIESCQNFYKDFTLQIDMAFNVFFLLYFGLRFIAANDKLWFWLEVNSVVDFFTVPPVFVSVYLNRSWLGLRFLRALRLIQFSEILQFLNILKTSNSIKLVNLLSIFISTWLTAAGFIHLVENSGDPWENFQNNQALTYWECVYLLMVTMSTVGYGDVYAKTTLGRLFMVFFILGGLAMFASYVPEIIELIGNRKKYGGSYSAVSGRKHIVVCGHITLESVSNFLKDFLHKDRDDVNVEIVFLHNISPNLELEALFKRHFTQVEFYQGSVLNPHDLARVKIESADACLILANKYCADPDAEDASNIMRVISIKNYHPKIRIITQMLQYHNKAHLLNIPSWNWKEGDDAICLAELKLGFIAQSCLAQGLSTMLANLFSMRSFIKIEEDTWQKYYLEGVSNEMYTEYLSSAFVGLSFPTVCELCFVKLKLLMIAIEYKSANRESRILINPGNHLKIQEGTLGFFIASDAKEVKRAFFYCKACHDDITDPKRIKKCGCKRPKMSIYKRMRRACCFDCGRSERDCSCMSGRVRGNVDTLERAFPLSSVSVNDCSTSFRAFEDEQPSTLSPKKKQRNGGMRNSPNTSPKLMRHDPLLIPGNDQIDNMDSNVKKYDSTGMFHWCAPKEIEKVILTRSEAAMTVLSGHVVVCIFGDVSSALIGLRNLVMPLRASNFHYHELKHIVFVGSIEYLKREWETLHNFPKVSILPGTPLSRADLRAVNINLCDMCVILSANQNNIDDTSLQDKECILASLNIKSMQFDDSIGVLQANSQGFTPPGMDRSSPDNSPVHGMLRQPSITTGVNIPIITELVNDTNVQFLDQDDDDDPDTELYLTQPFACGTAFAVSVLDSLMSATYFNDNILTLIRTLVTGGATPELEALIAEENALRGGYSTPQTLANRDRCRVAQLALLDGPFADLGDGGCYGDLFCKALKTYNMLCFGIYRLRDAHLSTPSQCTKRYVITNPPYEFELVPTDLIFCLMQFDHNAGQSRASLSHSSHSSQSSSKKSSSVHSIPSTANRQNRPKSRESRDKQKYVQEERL

CC(C)(O)[C@H]1O[C@H]2CC[C@@]3(C)[C@@](O)(CC[C@H]4Cc5c([nH]c6ccccc56)[C@@]43C)C2=CC1=O [paxillin] was tested, and the “inhibition of potassium channels in excised inside/out membrane patches of PC-3 cells” value [1] was “inhibited” and the “inhibition of potassium channels in excised inside/out membrane patches of BPH-1 cells” value [2] was “not”.
In the case of C[C@]12CC[C@@H]3c4ccc(O)cc4CC[C@H]3[C@@H]1CC[C@@H]2O [estradiol, 17β-estradiol], the “effect on growth of BPH-1 (words)” value ([3]; 100 nM 17β-estradiol) is reported as “growth promoting effect”, the “effect on growth of BPH-1 (words)” value [3, 8] is reported as “increased proliferation” and the “effect on growth of PC-3 (words)” value ([4]; 100 nM 17β-estradiol) is reported as “not”. For the same compound, the “effect on growth of PC-3 (words)” value [4, 8] was “no effect”, the “effect on growth of LNCaP (words)” value ([5]; 100 nM 17β-estradiol) was “growth promoting effect” and the “effect on growth of LNCaP (words)” value [5, 8] was “increased proliferation; also recorded: increased its growth rate”.
In the case of “iberiotoxin (QFTDVDCSVSKECWSVCKDLFGVDRGKCMGKKCRCYQ; Iberiotoxin; UniProt P24663 1-37, looked up)”, the “effect on whole cell conductances of BPH-1 cells” value [6] is reported as “no significant effects”, the “effect on estradiol-stimulated growth of BPH-1” value [3] is reported as “completely reversed” and the “effect on estradiol-stimulated growth of BPH-1” value ([3]; listed as Iberiotoxin) is reported as “blocked the growth stimulus”. For the same compound, the “effect on growth of BPH-1 (words)” value ([3]; 50 nM iberiotoxin) was “not and no significant effect”, the “effect on growth of BPH-1 (words)” value [3, 9] was “no effect” and the “reduction of the growth rate of PC-3” value ([4]; 0.05 μM Iberiotoxin, OPTI-MEM + 0.4% Albu-max) was 10-15%. The “effect on growth of PC-3 (words)” value ([4]; 50 nM iberiotoxin) was “significantly decreased growth rate; also recorded: significant reduction of the growth rate; also recorded: significant growth inhibition; also recorded: could be reduced”, the “effect on whole cell conductances of PC-3 cells” value [7] was “clear inhibitory effect” and the “effect on estradiol-stimulated growth of LNCaP” value [5] was “completely reversed; also recorded: could be blocked”. For the same compound, the “effect on estradiol-stimulated growth of LNCaP” value ([5]; listed as Iberiotoxin) was “blocked the growth stimulus”, the “effect on growth of LNCaP (words)” value ([5]; 50 nM iberiotoxin) was “not and no significant effect and did not react” and the “effect on growth of LNCaP (words)” value [5, 9] was “no effect”.
